Measurements taken from PubChem BioAssay AID248 (DTP/NCI, 2004).
Values joined by “and” are separate entries in the source; they are usually repeats but may differ in a detail not shown here. Equal entries are not always repeated. Inconclusive results and toxic doses are left out. Cut-off read from the data, not from the text of the source: active = T/C of 150% or more; inactive = T/C below 125%.

System: L1210 leukemia ip in BDF1 mice, survival T/C
Experiment: NCI In Vivo Anticancer Drug Screen. Data for tumor model L1210 Leukemia (intraperitoneal) in B6D2F1 (BDF1) mice
Details: higher = longer survival
How it was run: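 Tumor cells were implanted, animals were treated, and survival was followed. The result divides the treated measurement by the vehicle-control measurement.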

[1] = endpoint: mean survival time, dose: 100.0 mg/kg/injection, schedule: Q01DX001 (ip), vehicle: saline
[2] = endpoint: mean survival time, dose: 200.0 mg/kg/injection, schedule: Q01DX001 (ip), vehicle: saline
[3] = endpoint: mean survival time, dose: 400.0 mg/kg/injection, schedule: Q01DX001 (ip), vehicle: saline

Measured: T/C

C[C@]12C=CC(=O)C=C1CC[C@@H]1[C@@H]2C(=O)C[C@@]2(C)[C@H]1CC[C@]2(O)C(=O)CO
inactive: endpoint: mean survival time, dose: 0.25 mg/kg/injection, schedule: Q01DX009 (ip), vehicle: water 99 % of control | endpoint: mean survival time, dose: 0.5 mg/kg/injection, schedule: Q01DX009 (ip), vehicle: water 103 % of control | endpoint: mean survival time, dose: 1.0 mg/kg/injection, schedule: Q01DX009 (ip), vehicle: water 96 % of control and 97 % of control | endpoint: mean survival time, dose: 2.0 mg/kg/injection, schedule: Q01DX009 (ip), vehicle: water 99 % of control and 101 % of control | endpoint: mean survival time, dose: 2.5 mg/kg/injection, schedule: Q01DX009 (ip), vehicle: water 101 % of control | endpoint: mean survival time, dose: 5.0 mg/kg/injection, schedule: Q01DX009 (ip), vehicle: water 104 % of control | endpoint: mean survival time, dose: 6.25 mg/kg/injection, schedule: Q01DX014 (sc), vehicle: steriod suspending solution 103 % of control and 104 % of control | endpoint: mean survival time, dose: 12.5 mg/kg/injection, schedule: Q01DX014 (sc), vehicle: steriod suspending solution 100 % of control and 109 % of control | endpoint: mean survival time, dose: 25.0 mg/kg/injection, schedule: Q01DX014 (sc), vehicle: steriod suspending solution 103 % of control and 105 % of control | endpoint: mean survival time, dose: 25.0 mg/kg/injection, schedule: Q01DX Z (sc), vehicle: steriod suspending solution 97 % of control and 102 % of control and 108 % of control | endpoint: mean survival time, dose: 50.0 mg/kg/injection, schedule: Q01DX009 (ip), vehicle: saline with Tween-80 102 % of control | endpoint: mean survival time, dose: 50.0 mg/kg/injection, schedule: Q01DX Z (sc), vehicle: steriod suspending solution 100 % of control (2×) and 112 % of control | endpoint: mean survival time, dose: 100.0 mg/kg/injection, schedule: Q01DX009 (ip), vehicle: Klucel (hydroxypropylcellulose) (HPC) 107 % of control | endpoint: mean survival time, dose: 100.0 mg/kg/injection, schedule: Q01DX009 (ip), vehicle: saline with Tween-80 97 % of control | endpoint: mean survival time, dose: 100.0 mg/kg/injection, schedule: Q01DX009 (ip), vehicle: saline 100 % of control | endpoint: mean survival time, dose: 100.0 mg/kg/injection, schedule: Q01DX009 (ip), vehicle: steriod suspending solution 104 % of control | endpoint: mean survival time, dose: 100.0 mg/kg/injection, schedule: Q01DX009 (sc), vehicle: Klucel (hydroxypropylcellulose) (HPC) 91 % of control | endpoint: mean survival time, dose: 100.0 mg/kg/injection, schedule: Q01DX009 (sc), vehicle: saline 97 % of control | endpoint: mean survival time, dose: 100.0 mg/kg/injection, schedule: Q01DX009 (sc), vehicle: steriod suspending solution 100 % of control | endpoint: mean survival time, dose: 100.0 mg/kg/injection, schedule: Q01DX Z (sc), vehicle: steriod suspending solution 98 % of control and 101 % of control | endpoint: mean survival time, dose: 100.0 mg/kg/injection, schedule: Q04DX003 (ip), vehicle: saline with Tween-80 106 % of control | endpoint: mean survival time, dose: 120.0 mg/kg/injection, schedule: Q01DX001 (sc), vehicle: steriod suspending solution 106 % of control | endpoint: mean survival time, dose: 180.0 mg/kg/injection, schedule: Q01DX001 (sc), vehicle: steriod suspending solution 107 % of control | endpoint: mean survival time, dose: 200.0 mg/kg/injection, schedule: Q01DX009 (ip), vehicle: Klucel (hydroxypropylcellulose) (HPC) 100 % of control | endpoint: mean survival time, dose: 200.0 mg/kg/injection, schedule: Q01DX009 (ip), vehicle: saline with Tween-80 102 % of control | endpoint: mean survival time, dose: 200.0 mg/kg/injection, schedule: Q01DX009 (ip), vehicle: saline 104 % of control | endpoint: mean survival time, dose: 200.0 mg/kg/injection, schedule: Q01DX009 (ip), vehicle: steriod suspending solution 104 % of control | endpoint: mean survival time, dose: 200.0 mg/kg/injection, schedule: Q01DX009 (sc), vehicle: Klucel (hydroxypropylcellulose) (HPC) 110 % of control | endpoint: mean survival time, dose: 200.0 mg/kg/injection, schedule: Q01DX009 (sc), vehicle: saline 105 % of control | endpoint: mean survival time, dose: 200.0 mg/kg/injection, schedule: Q01DX009 (sc), vehicle: steriod suspending solution 102 % of control | endpoint: mean survival time, dose: 200.0 mg/kg/injection, schedule: Q01DX Z (sc), vehicle: steriod suspending solution 94 % of control and 96 % of control | endpoint: mean survival time, dose: 200.0 mg/kg/injection, schedule: Q04DX003 (ip), vehicle: saline with Tween-80 98 % of control | endpoint: mean survival time, dose: 240.0 mg/kg/injection, schedule: Q01DX001 (sc), vehicle: steriod suspending solution 104 % of control | endpoint: mean survival time, dose: 400.0 mg/kg/injection, schedule: Q01DX009 (ip), vehicle: Klucel (hydroxypropylcellulose) (HPC) 100 % of control | endpoint: mean survival time, dose: 400.0 mg/kg/injection, schedule: Q01DX009 (ip), vehicle: saline 101 % of control | endpoint: mean survival time, dose: 400.0 mg/kg/injection, schedule: Q01DX009 (ip), vehicle: steriod suspending solution 89 % of control | endpoint: mean survival time, dose: 400.0 mg/kg/injection, schedule: Q01DX009 (sc), vehicle: Klucel (hydroxypropylcellulose) (HPC) 97 % of control | endpoint: mean survival time, dose: 400.0 mg/kg/injection, schedule: Q01DX009 (sc), vehicle: saline 109 % of control | endpoint: mean survival time, dose: 400.0 mg/kg/injection, schedule: Q01DX009 (sc), vehicle: steriod suspending solution 96 % of control | endpoint: mean survival time, dose: 400.0 mg/kg/injection, schedule: Q01DX Z (sc), vehicle: steriod suspending solution 100 % of control | endpoint: mean survival time, dose: 400.0 mg/kg/injection, schedule: Q04DX003 (ip), vehicle: saline with Tween-80 104 % of control | endpoint: mean survival time, dose: 500.0 mg/kg/injection, schedule: Q01DX001 (ip), vehicle: water 98 % of control and 103 % of control | endpoint: mean survival time, dose: 800.0 mg/kg/injection, schedule: Q01DX009 (ip), vehicle: Klucel (hydroxypropylcellulose) (HPC) 105 % of control | endpoint: mean survival time, dose: 800.0 mg/kg/injection, schedule: Q01DX009 (ip), vehicle: saline 110 % of control | endpoint: mean survival time, dose: 800.0 mg/kg/injection, schedule: Q01DX009 (ip), vehicle: steriod suspending solution 95 % of control | endpoint: mean survival time, dose: 800.0 mg/kg/injection, schedule: Q01DX009 (sc), vehicle: Klucel (hydroxypropylcellulose) (HPC) 103 % of control | endpoint: mean survival time, dose: 800.0 mg/kg/injection, schedule: Q01DX009 (sc), vehicle: saline 104 % of control | endpoint: mean survival time, dose: 800.0 mg/kg/injection, schedule: Q01DX009 (sc), vehicle: steriod suspending solution 102 % of control | endpoint: mean survival time, dose: 1000.0 mg/kg/injection, schedule: Q01DX001 (ip), vehicle: water 97 % of control and 102 % of control | endpoint: mean survival time, dose: 2000.0 mg/kg/injection, schedule: Q01DX001 (ip), vehicle: water 96 % of control and 109 % of control | endpoint: median survival time, dose: 25.0 mg/kg/injection, schedule: Q01DX009 (ip), vehicle: water 100 % of control and 90 % of control | endpoint: median survival time, dose: 50.0 mg/kg/injection, schedule: Q01DX009 (ip), vehicle: water 95 % of control and 100 % of control | endpoint: median survival time, dose: 100.0 mg/kg/injection, schedule: Q01DX009 (ip), vehicle: water 95 % of control and 100 % of control | endpoint: median survival time, dose: 108.0 mg/kg/injection, schedule: Q01DX009 (ip), vehicle: water 100 % of control and 90 % of control | endpoint: median survival time, dose: 180.0 mg/kg/injection, schedule: Q01DX009 (ip), vehicle: water 95 % of control and 90 % of control | endpoint: median survival time, dose: 200.0 mg/kg/injection, schedule: Q01DX009 (ip), vehicle: water 95 % of control and 100 % of control | endpoint: median survival time, dose: 300.0 mg/kg/injection, schedule: Q01DX009 (ip), vehicle: water 100 % of control | endpoint: median survival time, dose: 375.0 mg/kg/injection, schedule: Q01DX001 (ip), vehicle: water 100 % of control | endpoint: median survival time, dose: 400.0 mg/kg/injection, schedule: Q01DX009 (ip), vehicle: water 95 % of control and 110 % of control | endpoint: median survival time, dose: 400.0 mg/kg/injection, schedule: Q04DX003 (ip), vehicle: saline 111 % of control | endpoint: median survival time, dose: 500.0 mg/kg/injection, schedule: Q01DX009 (ip), vehicle: water 90 % of control | endpoint: median survival time, dose: 600.0 mg/kg/injection, schedule: Q04DX003 (ip), vehicle: saline 104 % of control | endpoint: median survival time, dose: 750.0 mg/kg/injection, schedule: Q01DX001 (ip), vehicle: water 100 % of control | endpoint: median survival time, dose: 800.0 mg/kg/injection, schedule: Q01DX009 (ip), vehicle: water 100 % of control | endpoint: median survival time, dose: 833.0 mg/kg/injection, schedule: Q01DX009 (ip), vehicle: water 90 % of control | endpoint: median survival time, dose: 1388.0 mg/kg/injection, schedule: Q01DX009 (ip), vehicle: water 90 % of control | endpoint: median survival time, dose: 1500.0 mg/kg/injection, schedule: Q01DX001 (ip), vehicle: water 100 % of control | endpoint: median survival time, dose: 3000.0 mg/kg/injection, schedule: Q01DX001 (ip), vehicle: water 100 % of control and 102 % of control

Cc1nc(N)nc2c1CCC(Nc1ccccc1)S2 (stereo unspecified)
inactive: endpoint: mean survival time, dose: 100.0 mg/kg/injection, schedule: Q04DX003 (ip), vehicle: Klucel (hydroxypropylcellulose) (HPC) 106 % of control | endpoint: mean survival time, dose: 200.0 mg/kg/injection, schedule: Q04DX003 (ip), vehicle: Klucel (hydroxypropylcellulose) (HPC) 103 % of control | endpoint: mean survival time, dose: 400.0 mg/kg/injection, schedule: Q04DX003 (ip), vehicle: Klucel (hydroxypropylcellulose) (HPC) 92 % of control

O=[N+]([O-])c1ccc(N/N=C(/Cc2ccccc2)c2ccc(Cl)cc2)c([N+](=O)[O-])c1
inactive: [1] 107 % of control | [2] 86 % of control | [3] 98 % of control

CC1(C)N=C(N)N=C(N)N1c1ccc(OCCNC(=O)c2ccc(S(=O)(=O)F)cc2)c(Cl)c1
inactive: endpoint: mean survival time, dose: 18.75 mg/kg/injection, schedule: Q04DX003 (ip), vehicle: saline with Tween-80 103 % of control | endpoint: mean survival time, dose: 37.5 mg/kg/injection, schedule: Q04DX003 (ip), vehicle: saline with Tween-80 108 % of control | endpoint: mean survival time, dose: 75.0 mg/kg/injection, schedule: Q04DX003 (ip), vehicle: saline with Tween-80 104 % of control

CCC(=O)N1CCN(C(=O)CC)c2ccccc21
inactive: endpoint: mean survival time, dose: 50.0 mg/kg/injection, schedule: Q01DX001 (ip), vehicle: saline 98 % of control | [1] 104 % of control | [2] 104 % of control | [3] 101 % of control
